Laboratory results as given in US20240025862A1, “SUBSTITUTED N-PHENYLURACILS AND SALTS THEREOF, AND USE THEREOF AS HERBICIDAL ACTIVE SUBSTANCES” (Bayer Aktiengesellschaft, priority 2020, published 2024).

Key:
Format in all cases: in vivo
Oryza sativa (ORYSA) = test: Post-emergence crop plant compatibility, greenhouse pot test (also comparative test C)
Method in brief: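 Visual damage versus untreated plants (0% = like control, 100% = plants died) was scored about 3 weeks after a post-emergence spray in greenhouse pots. Treatment: one-leaf stage, WP or EC in water at 600 l/ha with 0.5% additive; a/b/c mark different dosages on the same crop.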

Brassica napus (BRSNW) = test: Post-emergence crop plant compatibility, greenhouse pot test; conditions: 1.25 g/ha, vs untreated controls
Method in brief: (§1)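 Greenhouse pot test; post-emergence foliar spray at one-leaf stage, WP or EC in water + 0.5% additive, 600 l/ha. Visual rating after ~3 wk, % relative to untreated (0–100%).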

[1] = tested on: Triticum aestivum (TRZAS); test: as above; conditions: 1.25 g/ha, vs untreated controls
Method in brief: as §1

Zea mays (ZEAMX) [2] = test: as above; conditions: 1.25 g/ha, vs untreated controls
Method in brief: as §1

Glycine max (GLXMA) = test: as above
Method in brief: as §1

[3] = tested on: Matricaria inodora (MATIN); test: Post-emergence herbicidal action, greenhouse pot test (also comparative test C)
Method in brief: (§2)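 Green parts of one-leaf-stage plants are sprayed at 600 l/ha with formulated compound plus 0.5% additive, then kept under optimum greenhouse conditions for about 3 weeks. Damage is scored visually, where 100% means dead plants and 0% means no difference from controls.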

[4] = tested on: Echinochloa crus-galli (ECHCG); test: as above
Method in brief: as §2

Setaria viridis (SETVI) = test: as above
Method in brief: as §2

[5] = tested on: Alopecurus myosuroides (ALOMY); test: as above
Method in brief: as §2

Zea mays (ZEAMX) [6] = test: Pre-emergence crop plant compatibility, greenhouse pot test; conditions: 20 g/ha
Source text: (§3) Seeds of monocotyledonous and dicotyledonous weed plants and crop plants were placed in plastic or organic planting pots and covered with soil. The compounds of the invention, formulated in the form of wettable powders (WP) or as emulsion concentrates (EC), were then applied to the surface of the covering soil as aqueous suspension or emulsion with addition of 0.5% additive at a water application rate equivalent to 600 l/ha (converted). After the treatment, the pots were placed in a greenhouse and kept under good growth conditions for the test plants. After about 3 weeks, the effect of the preparations was scored visually in comparison with untreated controls as percentages. For example, 100% activity=the plants have died, 0% activity=like control plants.
The observed effects on selected crop plants are reported here in comparison to the untreated controls (values in %).

[7] = tested on: Matricaria inodora (MATIN); test: Pre-emergence herbicidal action, greenhouse pot test; conditions: scored after about 3 weeks
Source text: as §3
(§4) Tables B1 to B10 below show the effects of selected compounds of the general formula (I) according to Tables I.1 to I.33 on various harmful plants and at an application rate corresponding to 80 g/ha and less, which were obtained by the experimental method specified above. The appendices “a”, “b” and “c” give differentiation by different dosage with otherwise the same harmful plants tested.

[8] = tested on: Amaranthus retroflexus (AMARE); test: as above; conditions: scored after about 3 weeks
Source text: as §3, §4

[9] = tested on: Echinochloa crus-galli (ECHCG); test: as above; conditions: 80 g/ha, scored after about 3 weeks
Source text: as §3, §4

Avena fatua (AVEFA) = test: as above; conditions: 80 g/ha, scored after about 3 weeks
Source text: as §3, §4

[10] = tested on: Abutilon theophrasti (ABUTH); test: as above; conditions: scored after about 3 weeks
Source text: as §3, §4

Veronica persica (VERPE) = test: as above; conditions: scored after about 3 weeks
Source text: as §3, §4

[11] = tested on: Alopecurus myosuroides (ALOMY); test: as above; conditions: scored after about 3 weeks
Source text: as §3, §4

Lolium rigidum (LOLRI) = test: as above; conditions: 80 g/ha, scored after about 3 weeks
Source text: as §3, §4

[12] = tested on: Digitaria sanguinalis (DIGSA); test: as above; conditions: scored after about 3 weeks
Source text: as §3, §4

[13] = application rate of 5 g or less per hectare, tables C1 to C4
[14] = comparative test C, application rate 1.25 g/ha

Which results are given for `COCCOC(=O)COc1ccccc1Oc1cc(-n2c(=O)cc(C(F)(F)F)n(C)c2=O)c(F)cc1Cl` [I.7-1, 2-Methoxyethyl (2-{2-chloro-4-fluoro-5-[3-methyl-2,6-dioxo-4-(trifluoromethyl)-3,6-dihydropyrimidin-1(2H)-yl]phenoxy}phenoxy)acetate]?
compatibility with respect to the crop plant Oryza sativa (ORYSA) by comparison with literature compound a-17 / 3-14 (Oryza sativa (ORYSA); application rate of 1.25 g per hectare, table C5): distinct improvement in compatibility; ORYSA (efficacy in %) (Oryza sativa (ORYSA); comparative test C, application rate 1.25 g/ha, crop plant compatibility): 0%; Post-emergence action against BRSNW (crop plant compatibility) (Brassica napus (BRSNW)): 20%; Post-emergence action against TRZAS (crop plant compatibility) [1]: 20%; Post-emergence action against ZEAMX (crop plant compatibility) (Zea mays (ZEAMX) [2]): 20%; Post-emergence action against GLXMA in % (Glycine max (GLXMA); 1.25 g/ha): 10%; Post-emergence action against GLXMA in % (Glycine max (GLXMA); 5 g/ha): 10%; Post-emergence action against GLXMA in % (Glycine max (GLXMA); 20 g/ha): 10%; pest or weed control at 1.25 g/ha ([3]; Tripleurospermum inodorum, 504 h, dosage 1.25 g/ha, read-out: Post-emergence action against MATIN in %): 100%; pest or weed control at 5 g/ha ([3]; Tripleurospermum inodorum, 504 h, dosage 5 g/ha, read-out: Post-emergence action against MATIN in %): 100%; pest or weed control at 20 g/ha ([3]; Tripleurospermum inodorum, 504 h, dosage 20 g/ha, read-out: Post-emergence action against MATIN in %): 100%; herbicidal efficacy against MATIN by comparison with literature compound a-17 / 3-14 [3, 13]: distinct improvement in herbicidal efficacy; MATIN (efficacy in %) [3, 14]: 100%; Post-emergence action at 1.25 g/ha against ECHCG in % ([4]; 1.25 g/ha, rated visually after about 3 weeks vs untreated controls, 100% = plants have died): 90%; pest or weed control at 5 g/ha ([4]; Echinochloa crus-galli, 504 h, dosage 5 g/ha, read-out: Post-emergence action against ECHCG in %): 100%; pest or weed control at 20 g/ha ([4]; Echinochloa crus-galli, 504 h, dosage 20 g/ha, read-out: Post-emergence action against ECHCG in %): 90%; herbicidal efficacy against ECHCG by comparison with literature compound a-17 / 3-14 [4, 13]: distinct improvement in herbicidal efficacy; ECHCG (efficacy in %) [4, 14]: 90%; pest or weed control at 20 g/ha (Setaria viridis (SETVI); Setaria viridis, 504 h, 20 g/ha, read-out: Post-emergence action against SETVI): 100%; pest or weed control at 1.25 g/ha (Setaria viridis (SETVI); Setaria viridis, 504 h, dosage 1.25 g/ha, read-out: Post-emergence action against SETVI in %): 100%; pest or weed control at 5 g/ha (Setaria viridis (SETVI); Setaria viridis, 504 h, dosage 5 g/ha, read-out: Post-emergence action against SETVI in %): 100%; herbicidal efficacy against SETVI by comparison with literature compound a-17 / 3-14 (Setaria viridis (SETVI); [13]): distinct improvement in herbicidal efficacy; SETVI (efficacy in %) (Setaria viridis (SETVI); [14]): 100%; pest or weed control at 5 g/ha ([5]; Alopecurus myosuroides, 504 h, 5 g/ha, rated visually after about 3 weeks vs untreated controls, 100% = plants have died, read-out: Post-emergence action at 5 g/ha against ALOMY in %): 80%; pest or weed control at 20 g/ha ([5]; Alopecurus myosuroides, 504 h, 20 g/ha, rated visually after about 3 weeks vs untreated controls, 100% = plants have died, read-out: Post-emergence action at 20 g/ha against ALOMY in %): 100%; herbicidal efficacy against ALOMY by comparison with literature compound a-17 / 3-14 [5, 13]: distinct improvement in herbicidal efficacy; Pre-emergence action against ZEAMX in % (Zea mays (ZEAMX) [6]): 0%; Pre-emergence action against MATIN in % ([7]; 20 g/ha): 100%; Pre-emergence action against MATIN in % ([7]; 80 g/ha): 100%; Pre-emergence action against AMARE in % ([8]; 20 g/ha): 100%; Pre-emergence action against AMARE in % ([8]; 80 g/ha): 100%; Pre-emergence action against ECHCG in % [9]: 90%; Pre-emergence action against AVEFA in % (Avena fatua (AVEFA)): 100%; Pre-emergence action against ABUTH in % ([10]; 20 g/ha): 100%; Pre-emergence action against ABUTH in % ([10]; 80 g/ha): 100%; Pre-emergence action against VERPE in % (Veronica persica (VERPE); 20 g/ha): 100%; Pre-emergence action against VERPE in % (Veronica persica (VERPE); 80 g/ha): 100%; Pre-emergence action against ALOMY in % ([11]; 20 g/ha): 80%; Pre-emergence action against ALOMY in % ([11]; 80 g/ha): 100%; Pre-emergence action against LOLRI in % (Lolium rigidum (LOLRI)): 100%; Pre-emergence action against DIGSA in % ([12]; 20 g/ha): 100%; Pre-emergence action against DIGSA in % ([12]; 80 g/ha): 100%
